Measurements published in BindingDB's records for doi:10.1021/jm950720u (Tohoku College of Pharmacy, 1996).
pIC50, pKi: −log10 of the molar value.

Target: T1, Aromatase (Homo sapiens, UniProt P11511)
T1 sequence (P11511 whole entry): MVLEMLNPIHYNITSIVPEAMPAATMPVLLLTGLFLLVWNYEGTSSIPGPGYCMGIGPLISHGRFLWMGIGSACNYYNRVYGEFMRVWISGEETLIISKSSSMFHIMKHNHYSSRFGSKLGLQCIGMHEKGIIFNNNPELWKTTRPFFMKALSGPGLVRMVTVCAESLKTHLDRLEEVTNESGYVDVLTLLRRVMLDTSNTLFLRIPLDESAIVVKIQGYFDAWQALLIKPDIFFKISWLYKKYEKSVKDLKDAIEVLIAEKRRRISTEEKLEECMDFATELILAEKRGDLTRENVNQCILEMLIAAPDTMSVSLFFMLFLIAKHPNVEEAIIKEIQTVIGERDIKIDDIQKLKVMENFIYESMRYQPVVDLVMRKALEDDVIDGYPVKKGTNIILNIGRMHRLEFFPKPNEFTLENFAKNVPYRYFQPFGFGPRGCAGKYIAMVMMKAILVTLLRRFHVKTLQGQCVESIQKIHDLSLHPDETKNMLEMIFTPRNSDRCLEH
Assay: Aromatase Assay
Details: pH 7.5; 37 °C
Protocol: The enzyme activity was assayed by measuring the 3H-labeled H2O formed from [1beta-3H] Androstenedione during aromatization. After incubation, the reaction was terminated by CHCl3 extraction and centrifugation. Aliquots of the water phase were assayed for the presence of 3H2O by counting using a liquid scintillation spectrometer.

Q: What does the source list for `C[C@]12CCC(=O)C=C1CCC1C2CC[C@]2(C)C(=O)CCC12` (stereo partly drawn) [[1beta-3H] androstenedione]?
A: pIC50: 6.52; pKi: 7.70
